Converted amounts (≈) assume the structure as drawn. Starred links: 1 amine or outer side, 2 acyl side, 3 side chain; linkers in the order of their positions; H or OH if unused. Positions of bridges follow the written chain, without caps; N, C: chain ends. Non-standard residues stand in square brackets, D forms with d. Residues, ends and D or L forms follow the SMILES beside them. X4 = CC(C)CCC=CCCC[C@H](CC(=O)[*:1])O[*:2]; X6 = CC(C)CCCCC=CC[C@H](CC(=O)[*:1])O[*:2]; X5 = CC(C)CCCCCCC[C@H](CC(=O)[*:1])O[*:2]; X3 = CC(C)CCCCC[C@H](CC(=O)[*:1])O[*:2]; X7 = CCCCCCC=CC[C@H](CC(=O)[*:1])O[*:2]; X2 = CCCCCCC[C@H](CC(=O)[*:1])O[*:2]; Val(3-OH) = CC(C)(O)[C@H](N)C(=O)O; X1 = C/C=C(/N[*:1])C(=O)[*:2]; Dab = NCC[C@H](N)C(=O)O; Dap = NC[C@H](N)C(=O)O
Tested on: K. pneumoniae LMG20218
Assay: MIC, broth micro-dilution, primary panel
Format: cell-based, Klebsiella pneumoniae
Conditions: for MIC: Klebsiella pneumoniae, LMG20218, ESBL; for MIC K. pneumoniae LMG20218: ESBL
Description: Isopedopeptin E (5): off-white solid; [α] D20 –36° (c 0.3 in methanol); UV (MeOH) λ max (log10 ε) 240 (3.8); 1H NMR (DMSO-d 6, 600 MHz), see Table S5; 13C NMR (DMSO-d 6, 150 MHz), see Table […]
Isopedopeptin F (6): off-white solid; [α] D20 –32° (c 0.05 in methanol); UV (MeOH) λ max (log10 ε) 240 (3.8); 1H NMR (DMSO-d 6, 600 MHz), see Table S6; 13C NMR (DMSO-d 6, 150 MHz), see Table […]
Isopedopeptin G (7): off-white solid; [α] D20 –49° (c 0.1 in methanol); UV (MeOH) λ max (log10 ε) 240 (4.0); 1H NMR (DMSO-d 6, 600 MHz), see Table S7; 13C NMR (DMSO-d 6, 150 MHz), see Table […]
Isopedopeptin H (8): off-white solid; [α] D20 –56° (c 0.2 in methanol); UV (MeOH) λ max (log10 ε) 240 (4.0); 1H NMR (DMSO-d 6, 600 MHz), see Table S8; 13C NMR (DMSO-d 6, 150 MHz), see Table […]
Minimal Inhibitory Concentration (MIC) against the primary panel of microorganisms.
The MIC for compounds 1–8 was measured by means of a broth micro-dilution method in 96-wells microtiter plates with the addition of E. coli LMG15862, LMG1041 T, E. cloacaeA. baumannii […]
H-29 and A. fumigatus J7, as test organisms. The test media were AM3 Broth (BD Difco Ltd) mixed with phosphate buffered saline (PBS, Amresco LLC, Solon, USA) in 1:4 ratio (E. coli, A. baumannii, E. cloacae, K. pneumoniae and P. aeruginosa), AM3 Broth mixed with PBS in 1:1 ratio (S. aureus), ME (A. fumigatus) and ISP2 (C. albicans). Prior to MIC determination, the cell concentration of tested bacterial/fungal pathogens was adjusted to ≅ 4 × 10^5 CFU/mL (acceptable range 2 – 6 × 10^5 CFU/mL). Cell concentration was confirmed by colony counting after diluting and plating the respective bacterial pathogen on VPA plates [VPA, 10 g Vegetable Peptone Broth (Oxoid Ltd., Basingstoke,UK), 15 g Bacto Agar (Difco Ltd, Tyrone) in 1 L deionised water] directly after each of MIC-tests. The cells of C. albicans were plated on ISP2 agar plates [ISP2, 15 g Bacto Agar (Difco Ltd) in 1 L deionised water] and respectively spores of A. fumigatus were plated on MEA plates.
Plates were, subsequently, incubated at 37 °C in the dark, and viable colonies counted after 16 to 24 h.
To estimate MIC values (concentration range between 0.05 and 50 µg/mL), solutions of the tested compounds (100, 10 and 1 and if needed 0.1 µg/mL in MeOH) were dispensed into wells of microtiter plate(s) and the solvent was evaporated in a fume-hood. Subsequently, suspensions of pathogen cells in the appropriate medium were dispensed to the wells of microtiter plates and the growth of pathogens were observed after 16 to 20 h of incubation at 37 °C in the dark. Positive controls were the respective pathogen cells suspended in untreated sterile media without addition of compounds(s) and negative controls were the media only. MIC values were defined as the lowest concentration of each compound with no visible growth of pathogen. All MIC tests were performed in triplicate and […]
MIC determination for compound 2 against an extended panel of bacterial strains.
Compound 2 was evaluated against a panel of Gram-negative bacteria (Hughes strain collection), including: A. baumannii ATCC 19606, wild-type; BM4454, multidrug-resistant clinical isolate; BM4652, efflux-defective derivative of BM4454; CH9622, colistin-resistant clinical isolate; E. coli ATCC 25922, wild-type; CH3130, efflux-defective ΔtolC mutant isogenic to ATCC 25922; D22, a drug-hypersensitive lpxC mutant of E. coli; CH3491, multidrug-resistant clinical isolate; CH9623 and CH9624, colistin-resistant clinical isolates carrying mcr-1; K. pneumoniae ATCC 13833, wild-type; […]
clinical isolate; CH9625 and CH9626, colistin-resistant clinical isolates; P. aeruginosa PAO1, wild-type; PAO750, efflux-defective mutant isogenic to PAO1. The in vitro antimicrobial activity of each compound was determined by measuring the MIC value using the broth micro-dilution technique in cation-adjusted Mueller-Hinton II broth (Becton-Dickinson, 212322) according to EUCAST and CLSI guidelines. Each compound prepared in MHII medium was dispensed into a 96-well round- […]

Compound	MIC	MIC K. pneumoniae LMG20218
C/C=C1/NC(=O)[C@H](CCN)NC(=O)[C@H](CC(C)C)NC(=O)[C@H](CN)NC(=O)C[C@@H](CCCCCCCC(C)C)OC(=O)[C@H](CC(=O)O)NC(=O)[C@H](C(C)(C)O)NC(=O)[C@@H](Cc2ccccc2)NC(=O)[C@H](CN)NC(=O)[C@H]([C@@H](C)O)NC1=O [Compound 6, Isopedopeptin F] ([Dap]L[Dab][X1]T[Dap][dF][Val(3-OH)]D; linker N-C via X5)	32 µg/mL (≈ 27.6 µM)	–
C/C=C1/NC(=O)[C@H](CCN)NC(=O)[C@H](CC(C)C)NC(=O)[C@H](CN)NC(=O)C[C@@H](CC=CCCCCCC)OC(=O)[C@H](CC(=O)O)NC(=O)[C@H](C(C)(C)O)NC(=O)[C@@H](Cc2ccccc2)NC(=O)[C@H](CN)NC(=O)[C@H]([C@@H](C)O)NC1=O [Compound 3, isopedopeptin C] ([Dap]L[Dab][X1]T[Dap][dF][Val(3-OH)]D; linker N-C via X7)	32 µg/mL (≈ 28 µM)	–
C/C=C1/NC(=O)[C@H](CCN)NC(=O)[C@H](CC(C)C)NC(=O)[C@H](CN)NC(=O)C[C@@H](CCCCCCC)OC(=O)[C@H](CC(=O)O)NC(=O)[C@H](C(C)(C)O)NC(=O)[C@@H](Cc2ccccc2)NC(=O)[C@H](CN)NC(=O)[C@H]([C@@H](C)O)NC1=O [Compound 2, isopedopeptin B] ([Dap]L[Dab][X1]T[Dap][dF][Val(3-OH)]D; linker N-C via X2)	8 to 16 µg/mL (≈ 7.16 to 14.3 µM)	16 µg/mL (≈ 14.3 µM)
C/C=C1/NC(=O)[C@H](CCN)NC(=O)[C@H](CC(C)C)NC(=O)[C@H](CN)NC(=O)C[C@@H](CCCC=CCCC(C)C)OC(=O)[C@H](CC(=O)O)NC(=O)[C@H](C(C)C)NC(=O)[C@@H](Cc2ccccc2)NC(=O)[C@H](CN)NC(=O)[C@H]([C@@H](C)O)NC1=O [Compound 7, Isopedopeptin G] ([Dap]L[Dab][X1]T[Dap][dF]VD; linker N-C via X4)	8 to 16 µg/mL (≈ 7.01 to 14 µM)	16 µg/mL (≈ 14 µM)
C/C=C1/NC(=O)[C@H](CCN)NC(=O)[C@H](CC(C)C)NC(=O)[C@H](CN)NC(=O)C[C@@H](CC=CCCCCC(C)C)OC(=O)[C@H](CC(=O)O)NC(=O)[C@H](C(C)C)NC(=O)[C@@H](Cc2ccccc2)NC(=O)[C@H](CN)NC(=O)[C@H]([C@@H](C)O)NC1=O [Compound 8, Isopedopeptin H] ([Dap]L[Dab][X1]T[Dap][dF]VD; linker N-C via X6)	16 µg/mL (≈ 14 µM)	–
C/C=C1/NC(=O)[C@H](CCN)NC(=O)[C@H](CC(C)C)NC(=O)[C@H](CN)NC(=O)C[C@@H](CCCCCCC)OC(=O)[C@H](CC(=O)O)NC(=O)[C@H](C(C)C)NC(=O)[C@@H](Cc2ccccc2)NC(=O)[C@H](CN)NC(=O)[C@H]([C@@H](C)O)NC1=O [Compound 4, isopedopeptin D] ([Dap]L[Dab][X1]T[Dap][dF]VD; linker N-C via X2)	> 32 µg/mL	–
C/C=C1/NC(=O)[C@H](CCN)NC(=O)[C@H](CC(C)C)NC(=O)[C@H](CN)NC(=O)C[C@@H](CCCCCC(C)C)OC(=O)[C@H](CC(=O)O)NC(=O)[C@H](C(C)(C)O)NC(=O)[C@@H](Cc2ccccc2)NC(=O)[C@H](CN)NC(=O)[C@H]([C@@H](C)O)NC1=O [Compound 1, cyclo(3-hydroxy-9-methyldecanoyl-DAPA1-Leu-DABA-ABA-Thr-DAPA2-Phe-OHVal-Asp)] ([Dap]L[Dab][X1]T[Dap][dF][Val(3-OH)]D; linker N-C via X3)	8 to 16 µg/mL (≈ 7.07 to 14.1 µM)	8 µg/mL (≈ 7.07 µM)
C/C=C1/NC(=O)[C@H](CCN)NC(=O)[C@H](CC(C)C)NC(=O)[C@H](CN)NC(=O)C[C@@H](CCCCCC(C)C)OC(=O)[C@H](CC(=O)O)NC(=O)[C@H](C(C)C)NC(=O)[C@@H](Cc2ccccc2)NC(=O)[C@H](CN)NC(=O)[C@H]([C@@H](C)O)NC1=O [Compound 5, Isopedopeptin E] ([Dap]L[Dab][X1]T[Dap][dF]VD; linker N-C via X3)	32 µg/mL (≈ 28.7 µM)	–
